Read-outs that look alike come from different tables or passages of the source.
Legend:
Test in all cases: biochemical
Type in all cases: binding
CISH = target: T1, CISH (Homo sapiens, UniProt Q9NSE2); settings: for remaining activity at 10 µM: read-out: percent of DMSO vehicle control; for Kd: dose-response, read-out: KD
T1 construct: the DNA-tagged SH2 domain concentrations used in this study were <0.1 nM; made in house; host or cells: HEK293 (transient transfection; unpurified extract)
T1 sequence (Q9NSE2 82-163 limits assumed): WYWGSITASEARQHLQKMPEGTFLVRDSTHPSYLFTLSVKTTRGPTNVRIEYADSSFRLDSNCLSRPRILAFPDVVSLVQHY

PTPN11(SH2dom.C-term.) = target: T2, PTPN11(SH2dom.C-term.) (Homo sapiens, UniProt Q06124); settings: for percent of DMSO vehicle control: primary screen, 10 μM
T2 construct: SH2dom.C-term. denotes SH2 domain closest to C-terminus of protein; made in house; host or cells: HEK293 (transient transfection, unpurified extract)
T2 sequence (Q06124 112-216 limits assumed): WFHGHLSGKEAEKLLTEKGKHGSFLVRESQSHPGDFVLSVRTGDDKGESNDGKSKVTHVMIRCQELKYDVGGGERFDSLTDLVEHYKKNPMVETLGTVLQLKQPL

SH2D1A = target: T3, SH2D1A (Homo sapiens, UniProt O60880); settings: read-out: percent of DMSO vehicle control
T3 construct: made in house; host or cells: HEK293 (transient transfection), unpurified extract
T3 sequence (O60880 1-128): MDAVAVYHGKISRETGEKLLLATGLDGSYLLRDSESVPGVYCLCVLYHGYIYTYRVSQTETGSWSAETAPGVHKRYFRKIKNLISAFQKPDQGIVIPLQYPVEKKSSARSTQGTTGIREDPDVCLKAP

SHIP2 = target: T4, SHIP2 (Homo sapiens, UniProt O15357); settings: for remaining activity at 10 µM: read-out: percent of DMSO vehicle control
T4 construct: made in house; host or cells: HEK293 (transient transfection), unpurified extract
T4 sequence (O15357 1-1258): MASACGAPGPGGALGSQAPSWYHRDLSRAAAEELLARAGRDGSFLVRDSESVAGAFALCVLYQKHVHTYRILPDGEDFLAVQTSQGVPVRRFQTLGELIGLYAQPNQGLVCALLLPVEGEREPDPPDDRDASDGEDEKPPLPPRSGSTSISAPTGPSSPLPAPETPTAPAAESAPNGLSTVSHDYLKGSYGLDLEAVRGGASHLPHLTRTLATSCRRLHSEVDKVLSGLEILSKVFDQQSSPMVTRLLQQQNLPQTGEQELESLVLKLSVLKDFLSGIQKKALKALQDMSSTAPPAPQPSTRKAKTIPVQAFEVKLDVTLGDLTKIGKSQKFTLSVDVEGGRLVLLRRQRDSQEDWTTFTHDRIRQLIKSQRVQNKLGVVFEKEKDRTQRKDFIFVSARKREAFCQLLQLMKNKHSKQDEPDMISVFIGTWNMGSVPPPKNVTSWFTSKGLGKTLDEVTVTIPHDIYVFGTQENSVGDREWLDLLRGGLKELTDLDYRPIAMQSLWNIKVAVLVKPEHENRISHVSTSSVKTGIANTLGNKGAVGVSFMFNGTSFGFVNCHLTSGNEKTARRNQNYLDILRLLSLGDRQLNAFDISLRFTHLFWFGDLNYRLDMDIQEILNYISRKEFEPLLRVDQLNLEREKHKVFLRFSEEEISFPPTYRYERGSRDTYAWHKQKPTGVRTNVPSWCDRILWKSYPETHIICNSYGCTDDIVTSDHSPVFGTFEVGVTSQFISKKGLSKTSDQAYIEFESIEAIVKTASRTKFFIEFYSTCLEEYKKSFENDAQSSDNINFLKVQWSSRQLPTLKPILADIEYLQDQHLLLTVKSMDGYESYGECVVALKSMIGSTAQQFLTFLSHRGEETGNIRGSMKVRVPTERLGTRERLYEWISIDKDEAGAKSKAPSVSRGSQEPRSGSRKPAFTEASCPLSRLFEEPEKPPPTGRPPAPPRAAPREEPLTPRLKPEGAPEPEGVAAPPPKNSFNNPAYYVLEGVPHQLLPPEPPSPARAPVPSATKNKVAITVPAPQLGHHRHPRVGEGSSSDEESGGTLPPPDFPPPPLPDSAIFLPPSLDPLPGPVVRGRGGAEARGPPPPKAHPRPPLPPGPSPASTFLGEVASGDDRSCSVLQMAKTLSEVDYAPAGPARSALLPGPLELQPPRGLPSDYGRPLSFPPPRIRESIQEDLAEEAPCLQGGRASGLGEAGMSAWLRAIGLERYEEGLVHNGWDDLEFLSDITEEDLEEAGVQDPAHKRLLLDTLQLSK

[1] = target: T5, STAT3(E616del)-nonphosphorylated (Homo sapiens, UniProt P40763, DEL616-616); settings: for percent of DMSO vehicle control at 10 µM / remaining activity at 10 µM: read-out: percent of DMSO vehicle control; for remaining activity at 10 µM: primary screen
T5 construct: made in house; host or cells: HEK293 (transient transfection), unpurified extract, dephosphorylated by endogenous phosphatases

[2] = target: T6, STAT3(N647I)-nonphosphorylated (Homo sapiens, UniProt P40763, N647I); settings: for percent of DMSO vehicle control at 10 µM / remaining activity at 10 µM: read-out: percent of DMSO vehicle control; for remaining activity at 10 µM: primary screen
T6 construct: made in house; host or cells: HEK293 (transient transfection), unpurified extract, dephosphorylated by endogenous phosphatases

[3] = target: T7, STAT3(Y640F)-nonphosphorylated (Homo sapiens, UniProt P40763, Y640F); settings: for percent of DMSO vehicle control at 10 µM / remaining activity at 10 µM: read-out: percent of DMSO vehicle control; for remaining activity at 10 µM: primary screen
T7 construct: made in house; host or cells: HEK293 (transient transfection), unpurified extract, dephosphorylated by endogenous phosphatases

STAT5B = target: T8, STAT5B (Homo sapiens, UniProt P51692); settings: for percent of DMSO vehicle control at 10 µM / remaining activity at 10 µM: read-out: percent of DMSO vehicle control; for remaining activity at 10 µM: primary screen
T8 construct: made in house; host or cells: HEK293 (transient transfection), unpurified extract
T8 sequence (P51692 1-787): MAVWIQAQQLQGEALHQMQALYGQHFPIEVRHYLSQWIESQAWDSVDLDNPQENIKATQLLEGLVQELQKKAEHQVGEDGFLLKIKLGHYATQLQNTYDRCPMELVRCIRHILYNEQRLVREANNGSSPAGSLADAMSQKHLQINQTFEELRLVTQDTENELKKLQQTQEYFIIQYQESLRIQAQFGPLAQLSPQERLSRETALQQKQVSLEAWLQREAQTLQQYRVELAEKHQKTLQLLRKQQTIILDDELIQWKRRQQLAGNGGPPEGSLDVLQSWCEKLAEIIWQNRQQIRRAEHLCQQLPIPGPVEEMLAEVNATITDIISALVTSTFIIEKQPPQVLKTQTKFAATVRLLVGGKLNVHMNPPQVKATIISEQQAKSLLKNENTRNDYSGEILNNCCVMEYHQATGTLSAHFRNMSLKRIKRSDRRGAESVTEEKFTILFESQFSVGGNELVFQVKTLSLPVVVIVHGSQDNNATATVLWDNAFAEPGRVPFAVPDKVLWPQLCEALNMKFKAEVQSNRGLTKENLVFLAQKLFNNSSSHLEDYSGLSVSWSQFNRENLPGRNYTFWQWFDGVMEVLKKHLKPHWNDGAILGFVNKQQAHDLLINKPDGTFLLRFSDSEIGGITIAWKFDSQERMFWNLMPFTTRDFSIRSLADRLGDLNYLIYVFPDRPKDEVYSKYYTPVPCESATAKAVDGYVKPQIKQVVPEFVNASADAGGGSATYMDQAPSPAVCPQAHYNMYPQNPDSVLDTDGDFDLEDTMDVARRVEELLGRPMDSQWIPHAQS

`NC(=O)CC[C@H](NC(=O)[C@@H]1CC[C@@H]2CCN(C(=O)CCCCCC#Cc3cccc4c3CN(C3CCC(=O)NC3=O)C4=O)C[C@H](NC(=O)c3cc4cc(C(F)(F)P(=O)(O)O)ccc4[nH]3)C(=O)N21)C(=O)NC(c1ccccc1)c1ccccc1` (stereo partly shown) [SD-36] was tested, and the remaining activity at 10 µM (CISH) was 42.8 ± 5.7%, the “percent of DMSO vehicle control” value (PTPN11(SH2dom.C-term.)) was 104.4±9.8% and the remaining activity at 10 µM (SH2D1A) was 354%. The remaining activity at 10 µM (SHIP2) was 67.3 ± 2.6%, the Kd ([1]; dose-response) was 28 ± 11 nM and the percent of DMSO vehicle control at 10 µM [1] was 0%. The Kd ([2]; dose-response) was 63 ± 23 nM, the percent of DMSO vehicle control at 10 µM [2] was 0% and the Kd ([3]; dose-response) was 80 ± 27 nM. For the same compound, the percent of DMSO vehicle control at 10 µM [3] was 0.2 ± 0.6%, the Kd (STAT5B; dose-response) was 2030 ± 820 nM and the percent of DMSO vehicle control at 10 µM (STAT5B) was 5.7 ± 0.1%.

In the case of `CC(=O)N1CC[C@H]2CC[C@@H](C(=O)N[C@@H](CCC(N)=O)C(=O)NC(c3ccccc3)c3ccccc3)N2C(=O)[C@@H](NC(=O)c2cc3cc(C(F)(F)P(=O)(O)O)ccc3[nH]2)C1` [SI-109], the remaining activity at 10 µM (CISH) is reported as 102%, the “percent of DMSO vehicle control” value (PTPN11(SH2dom.C-term.)) is reported as 136.9% and the remaining activity at 10 µM (SH2D1A) is reported as 87.6%. It also gave a remaining activity at 10 µM (SHIP2) of 121%, a Kd [1] of 8.7 ± 3.4 nM and a percent of DMSO vehicle control at 10 µM [1] of 0.1%. For the same compound, the Kd [2] was 25 ± 8.3 nM, the percent of DMSO vehicle control at 10 µM [2] was 0.5 ± 0.1% and the Kd [3] was 78 ± 44 nM. The percent of DMSO vehicle control at 10 µM [3] was 5.8 ± 3.7%, the Kd (STAT5B) was 18000 ± 4000 nM and the percent of DMSO vehicle control at 10 µM (STAT5B) was 109%.

Compound `C/C(=C\C(=O)N[C@H](C(=O)N1CCC[C@H]1C(=O)N(c1ccccc1)c1ccc(I)cc1)C(C)(C)C)c1ccc(OP(=O)(O)O)cc1` [STAT6-IN-1] has a Kd (CISH) of 3600 ± 640 nM, a remaining activity at 10 µM (CISH; primary screen, 10 μM) of 1.6 ± 2.3% and a Kd (PTPN11(SH2dom.C-term.); dose-response, read-out: KD) of 1060 ± 350 nM. For the same compound, the “percent of DMSO vehicle control” value (PTPN11(SH2dom.C-term.)) was 2.1±0.9%, the remaining activity at 10 µM (SH2D1A; primary screen, 10 μM) was 68.7 ± 3.5% and the Kd (SHIP2; dose-response, read-out: KD) was 2030 ± 420 nM. For the same compound, the remaining activity at 10 µM (SHIP2; primary screen, 10 μM) was 6.9 ± 3.9%, the Kd ([1]; dose-response, read-out: KD) was 140 ± 35 nM and the remaining activity at 10 µM [1] was 0%. It also gave a Kd ([2]; dose-response, read-out: KD) of 800 ± 120 nM, a remaining activity at 10 µM [2] of 0% and a Kd ([3]; dose-response, read-out: KD) of 102 ± 44 nM. For the same compound, the remaining activity at 10 µM [3] was 0%, the Kd (STAT5B; dose-response, read-out: KD) was 16 ± 3.2 nM and the remaining activity at 10 µM (STAT5B) was 0%.

With `CC(C)(C)[C@H](NC(=O)/C=C/c1ccc(OP(=O)(O)O)cc1)C(=O)N1CCC[C@H]1C(=O)N(c1ccccc1)c1ccc(I)cc1` [STAT6-IN-3] the Kd (CISH) was 4200 ± 1100 nM, the remaining activity at 10 µM (CISH; primary screen, 10 μM) was 26.8 ± 11.8% and the “percent of DMSO vehicle control” value (PTPN11(SH2dom.C-term.)) was 37.9±11.0%. For the same compound, the remaining activity at 10 µM (SH2D1A; primary screen, 10 μM) was 68.5 ± 43.7%, the KD (SHIP2; dose-response) was “No Hit” and the remaining activity at 10 µM (SHIP2; primary screen, 10 μM) was 36.5 ± 29.6%. The Kd ([1]; dose-response, read-out: KD) was 280 ± 120 nM, the remaining activity at 10 µM [1] was 0.4 ± 0.4% and the Kd ([2]; dose-response, read-out: KD) was 1500 ± 750 nM. It also gave a remaining activity at 10 µM [2] of 2.1 ± 3.7%, a Kd ([3]; dose-response, read-out: KD) of 95 ± 40 nM and a remaining activity at 10 µM [3] of 2.4 ± 6.1%. For the same compound, the Kd (STAT5B; dose-response, read-out: KD) was 69 ± 42 nM and the remaining activity at 10 µM (STAT5B) was 0%.

With `O=C(COc1ccc2cc(C(=O)Nc3ccccc3)ccc2c1)NCc1ccc(OP(=O)(O)O)c(OP(=O)(O)O)c1` [Stafib-1] the Kd (CISH) was 3900 ± 8500 nM, the remaining activity at 10 µM (CISH; primary screen, 10 μM) was 1.7 ± 2.3% and the “percent of DMSO vehicle control” value (PTPN11(SH2dom.C-term.)) was 99.1±12.9%. For the same compound, the remaining activity at 10 µM (SH2D1A; primary screen, 10 μM) was 87.8 ± 37.4%, the remaining activity at 10 µM [1] was 135% and the remaining activity at 10 µM [2] was 78.6 ± 15.4%. It also gave a remaining activity at 10 µM [3] of 75.3 ± 26% and a remaining activity at 10 µM (STAT5B) of 0%.

Source: publication PMC12951562, “SH2scan: Mapping SH2 Domain-Ligand Binding Selectivity for Inhibitors and Degraders” (Journal of Medicinal Chemistry, 2026)
